Reference: PubChem BioAssay (NCI)
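Exposure lasted 48 hours, with cells grown in 96-well plates and compounds tested at five concentrations. GI50: concentration for 50% inhibition of growth. Definition used: TGI = concentration required for complete inhibition of growth.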

How the values were obtained:
Experiment in all cases: NCI-60 cell line screen, 48 h
RPMI-8226 leukemia = test system: RPMI-8226 leukemia
786-0 renal = test system: 786-0 renal
UO-31 renal = test system: UO-31 renal
DU-145 prostate = test system: DU-145 prostate
HCT-116 colon = test system: HCT-116 colon
HCT-15 colon = test system: HCT-15 colon
OVCAR-8 ovarian = test system: OVCAR-8 ovarian
TK-10 renal = test system: TK-10 renal
SK-OV-3 ovarian = test system: SK-OV-3 ovarian
MALME-3M melanoma = test system: MALME-3M melanoma
MOLT-4 leukemia = test system: MOLT-4 leukemia
SK-MEL-5 melanoma = test system: SK-MEL-5 melanoma
BT-549 breast = test system: BT-549 breast
A498 renal = test system: A498 renal
SF-539 CNS = test system: SF-539 CNS
SK-MEL-2 melanoma = test system: SK-MEL-2 melanoma
MCF7 breast = test system: MCF7 breast
EKVX NSCLC = test system: EKVX NSCLC
SK-MEL-28 melanoma = test system: SK-MEL-28 melanoma
RXF 393 renal = test system: RXF 393 renal
COLO 205 colon = test system: COLO 205 colon
OVCAR-4 ovarian = test system: OVCAR-4 ovarian
M14 melanoma = test system: M14 melanoma
IGROV1 ovarian = test system: IGROV1 ovarian
HL-60(TB) leukemia = test system: HL-60(TB) leukemia
SF-295 CNS = test system: SF-295 CNS
NCI/ADR-RES ovarian = test system: NCI/ADR-RES ovarian
SNB-75 CNS = test system: SNB-75 CNS
KM12 colon = test system: KM12 colon
NCI-H23 lung = test system: NCI-H23 lung
NCI-H226 lung = test system: NCI-H226 lung
OVCAR-5 ovarian = test system: OVCAR-5 ovarian
HOP-62 NSCLC = test system: HOP-62 NSCLC
HCC-2998 colon = test system: HCC-2998 colon
LOX IMVI melanoma = test system: LOX IMVI melanoma
HS 578T breast = test system: HS 578T breast
UACC-257 melanoma = test system: UACC-257 melanoma
NCI-H460 lung = test system: NCI-H460 lung
SW-620 colon = test system: SW-620 colon
CAKI-1 renal = test system: CAKI-1 renal
ACHN renal = test system: ACHN renal
OVCAR-3 ovarian = test system: OVCAR-3 ovarian
T-47D breast = test system: T-47D breast
SN12C renal = test system: SN12C renal
MDA-MB-231 breast = test system: MDA-MB-231 breast
MDA-MB-435 = test system: MDA-MB-435
SF-268 CNS = test system: SF-268 CNS
SR leukemia = test system: SR leukemia
NCI-H522 lung = test system: NCI-H522 lung
HOP-92 NSCLC = test system: HOP-92 NSCLC
SNB-19 CNS = test system: SNB-19 CNS
A549 NSCLC = test system: A549 NSCLC
PC-3 prostate = test system: PC-3 prostate
HT29 colon = test system: HT29 colon
U251 CNS = test system: U251 CNS
UACC-62 melanoma = test system: UACC-62 melanoma
K-562 leukemia = test system: K-562 leukemia

CCOC(=O)Oc1c(OC)cc(C(=O)O[C@@H]2C[C@@H]3CN4CCc5c([nH]c6cc(OC)ccc56)[C@H]4C[C@@H]3[C@H](C(=O)OC)[C@H]2OC)cc1OC
GI50 (RPMI-8226 leukemia): 2230 nM | TGI (RPMI-8226 leukemia): 10.8 µM | GI50 (786-0 renal): 9.62 µM | TGI (786-0 renal): 25.3 µM | GI50 (UO-31 renal): 5.18 µM | TGI (UO-31 renal): > 100 µM | GI50 (DU-145 prostate): 13.5 µM | TGI (DU-145 prostate): 95.8 µM | GI50 (HCT-116 colon): 1730 nM | TGI (HCT-116 colon): 3.58 µM | GI50 (HCT-15 colon): 2860 nM | TGI (HCT-15 colon): 13.2 µM | GI50 (OVCAR-8 ovarian): 4.94 µM | TGI (OVCAR-8 ovarian): 21.1 µM | GI50 (TK-10 renal): 14.7 µM | TGI (TK-10 renal): 42.5 µM | GI50 (SK-OV-3 ovarian): 14.3 µM | TGI (SK-OV-3 ovarian): 27.4 µM | GI50 (MALME-3M melanoma): 6.74 µM | TGI (MALME-3M melanoma): 27.1 µM | GI50 (MOLT-4 leukemia): 4.04 µM | TGI (MOLT-4 leukemia): 23.3 µM | GI50 (SK-MEL-5 melanoma): 7.86 µM | TGI (SK-MEL-5 melanoma): 20.7 µM | GI50 (BT-549 breast): 9.08 µM | TGI (BT-549 breast): 24.1 µM | GI50 (A498 renal): 7.38 µM | TGI (A498 renal): > 100 µM | GI50 (SF-539 CNS): 4.18 µM | TGI (SF-539 CNS): 14.8 µM | GI50 (SK-MEL-2 melanoma): 12.1 µM | TGI (SK-MEL-2 melanoma): 28.3 µM | GI50 (MCF7 breast): 4.13 µM | TGI (MCF7 breast): 17.3 µM | GI50 (EKVX NSCLC): 5.78 µM | TGI (EKVX NSCLC): 35.9 µM | GI50 (SK-MEL-28 melanoma): 6.32 µM | TGI (SK-MEL-28 melanoma): 18.8 µM | GI50 (RXF 393 renal): 5.03 µM | TGI (RXF 393 renal): 19.1 µM | GI50 (COLO 205 colon): 10.3 µM | TGI (COLO 205 colon): 24.1 µM | GI50 (OVCAR-4 ovarian): 4.72 µM | TGI (OVCAR-4 ovarian): 19.8 µM | GI50 (M14 melanoma): 4.44 µM | TGI (M14 melanoma): 18.9 µM | GI50 (IGROV1 ovarian): 9.58 µM | TGI (IGROV1 ovarian): 39.2 µM | GI50 (HL-60(TB) leukemia): 3.64 µM | TGI (HL-60(TB) leukemia): 15.1 µM | GI50 (SF-295 CNS): 10.2 µM | TGI (SF-295 CNS): 31.4 µM | GI50 (NCI/ADR-RES ovarian): 4.37 µM | TGI (NCI/ADR-RES ovarian): 23.3 µM | GI50 (SNB-75 CNS): 6.64 µM | TGI (SNB-75 CNS): 24.5 µM | GI50 (KM12 colon): 4.7 µM | TGI (KM12 colon): 17.7 µM | GI50 (NCI-H23 lung): 5.24 µM | TGI (NCI-H23 lung): 21.8 µM | GI50 (NCI-H226 lung): 15.1 µM | TGI (NCI-H226 lung): 58.1 µM | GI50 (OVCAR-5 ovarian): 18 µM | TGI (OVCAR-5 ovarian): 48.1 µM | GI50 (HOP-62 NSCLC): 11.7 µM | TGI (HOP-62 NSCLC): 25.2 µM | GI50 (HCC-2998 colon): 5.06 µM | TGI (HCC-2998 colon): 20 µM | GI50 (LOX IMVI melanoma): 2910 nM | TGI (LOX IMVI melanoma): 14.7 µM | GI50 (HS 578T breast): 7.09 µM | TGI (HS 578T breast): 55.9 µM | GI50 (UACC-257 melanoma): 12.4 µM | TGI (UACC-257 melanoma): 30.4 µM | GI50 (NCI-H460 lung): 3.8 µM | TGI (NCI-H460 lung): 16.6 µM | GI50 (SW-620 colon): 3.67 µM | TGI (SW-620 colon): 19.4 µM | GI50 (CAKI-1 renal): 13.9 µM | TGI (CAKI-1 renal): 48.1 µM | GI50 (ACHN renal): 4.16 µM | TGI (ACHN renal): 21.7 µM | GI50 (OVCAR-3 ovarian): 4.62 µM | TGI (OVCAR-3 ovarian): 16.1 µM | GI50 (T-47D breast): 2970 nM | TGI (T-47D breast): 20.1 µM | GI50 (SN12C renal): 4.34 µM | TGI (SN12C renal): 17.7 µM | GI50 (MDA-MB-231 breast): 2560 nM | TGI (MDA-MB-231 breast): 19.6 µM | GI50 (MDA-MB-435): 8.33 µM | TGI (MDA-MB-435): 23.9 µM | GI50 (SF-268 CNS): 8.07 µM | TGI (SF-268 CNS): 27.5 µM | GI50 (SR leukemia): 3.61 µM | TGI (SR leukemia): > 100 µM | GI50 (NCI-H522 lung): 5.18 µM | TGI (NCI-H522 lung): 18.7 µM | GI50 (HOP-92 NSCLC): 3.64 µM | TGI (HOP-92 NSCLC): 18.9 µM | GI50 (SNB-19 CNS): 5.04 µM | TGI (SNB-19 CNS): 20.9 µM | GI50 (A549 NSCLC): 3.41 µM | TGI (A549 NSCLC): 14.2 µM | GI50 (PC-3 prostate): 4.92 µM | TGI (PC-3 prostate): 33.8 µM | GI50 (HT29 colon): 2320 nM | TGI (HT29 colon): 5.92 µM | GI50 (U251 CNS): 4.24 µM | TGI (U251 CNS): 15.1 µM | GI50 (UACC-62 melanoma): 6.89 µM | TGI (UACC-62 melanoma): 20.3 µM | GI50 (K-562 leukemia): 3.5 µM | TGI (K-562 leukemia): 35.7 µM
